Results as given in US20100210700A1, “METHODS OF TREATMENT USING INTRAVENOUS FORMULATIONS COMPRISING TEMOZOLOMIDE” (SCHERING CORPORATION, priority 2007, published 2010).
Read-outs that look alike come from different tables or passages of the source.

Experiments:
[1] = Clinical bioequivalence study, IV (1.5-hr infusion) vs oral TMZ, primary CNS malignancies; format: in vivo, human; conditions: for Tmax / half-life / AUC / Cmax / concentration at 0 hr / concentration at 0.25 hr / concentration at 0.5 hr / concentration at 1 hr / concentration at 1.25 hr / concentration at 1.5 hr / concentration at 1.75 hr / concentration at 2 hr / concentration at 2.5 hr / concentration at 3 hr / concentration at 4 hr / concentration at 6 hr / concentration at 8 hr: human, plasma; for Tmax: read-out: Tmax, Median (range); for half-life: read-out: t½ terminal-phase half-life, Mean (CV, %) (converted); for concentration at 0 hr / concentration at 0.25 hr / concentration at 0.5 hr / concentration at 1 hr / concentration at 1.25 hr / concentration at 1.5 hr / concentration at 1.75 hr / concentration at 2 hr / concentration at 2.5 hr / concentration at 3 hr / concentration at 4 hr / concentration at 6 hr / concentration at 8 hr: read-out: Mean Temozolomide Concentration
Method: Twenty-two patients with primary CNS malignancies were enrolled in a clinical bioequivalence study and treated according to the methods of the present invention. Nineteen of the patients were considered to be pharmacokinetic evaluable. This study was a randomized, open-label, 2-way cross over study of the PK of oral and IV TMZ. The IV formulation of Example 3 is administered at a dosage of 150-200 mg/m^2 by intravenous infusion over a period of about 1.5 hours.
The patients are divided into two groups, those receiving Treatment A and those receiving Treatment B. The Treatment A patients receive oral TMZ (200 mg/m^2) on Days 1, 2 and 5, IV TMZ 150 mg/m2 on Day 3, and oral TMZ (150 mg/m^2) on Day 4 of a 28 day cycle. The Treatment B patients receive oral TMZ (200 mg/m^2) on Days 1, 2 and 5, Oral TMZ (150 mg/m^2) on Day 3 and IV TMZ (150 mg/m^2) on Day 4 of a 28 day cycle. Cmax and AUC for TMZ and MTIC are determined according to methods known to those skilled in the art on Days 3 and 4.

[2] = PO TMZ, Dose = 150 mg/m^2, Actual n = 12; cited from earlier work
[3] = Two-way crossover pilot bioavailability study, IV (1-hour infusion) vs PO temozolomide; format: in vivo, human; conditions: for bioavailability / AUC / Cmax: human, plasma; for bioavailability: po, 150 mg/m^2/day, humans, n=13 patients; for AUC / Cmax: n = 13
Method: To validate the IV PK model, the first pass effects and oral bioavailability were determined in a two-way crossover pilot bioavailability study. This was a Phase-1, randomized, open-label pilot study designed to compare the relative bioavailability of IV and PO temozolomide in adult patients with histologically confirmed primary CNS malignancies. The study was conducted in conformance with Good Clinical Practices. Up to 18 patients (to yield 12 evaluable patients) were planned to be enrolled at 1 or 2 centers. 13 patients were enrolled at 2 centers (7 at Center 1, 6 at Center 2). All 13 patients were included in pharmacokinetic and safety analyses. Patients were followed for 23 days after treatment ended for safety evaluations.
After fulfilling all study eligibility requirements, the patients received temozolomide for 5 days (Days 1 to 5) during a 4-week treatment cycle. On Days 1, 2, and 5, patients received temozolomide (200 mg/m^2/day) as a PO dose. On Days 3 and 4, patients received Temozolomide (150 mg/m^2/day) as a PO dose on one day and as an IV dose on the other day. The IV dose was administered by 1-hour infusion (using an infusion pump) either on Day 3 or Day 4 according to a random code. Pharmacokinetic evaluations were performed on Days 3 and 4 for determination of concentrations of temozolomide and MTIC in plasma.

[4] = 1.5-hr infusion vs PO, 150 mg/m^2/day, n = 19
[5] = TMZ IV 1.5 hr infusion, 150 mg/m^2/day, n = 19
[6] = 150 mg/m2, TMZ PO, 150 mg/m^2/day, n = 19
[7] = IV 1.5 hr infusion, 150 mg/m^2/day, n = 19
[8] = IV 1.5 hr infusion, 150 mg/m^2/day, n = 18
[9] = 1-hour infusion vs PO, 150 mg/m2/day

Cn1nnc2c(C(N)=O)ncn2c1=O [TMZ, 3,4-dihydro-3-methyl-4-oxoimidazo[5,1-d]-as-tetrazine-8-carboxamide]
AUC(I) Ratio Estimate IV to PO [1, 4]: 105% | AUC(I) ratio IV to PO, 90% Confidence Interval [1, 4]: 102-108% | AUC(tf) Ratio Estimate IV to PO [1, 4]: 106% | AUC(tf) ratio IV to PO, 90% Confidence Interval [1, 4]: 103-109% | Cmax Ratio Estimate IV to PO [1, 4]: 97% | Cmax ratio IV to PO, 90% Confidence Interval [1, 4]: 91-102% | bioequivalence of IV (1.5-hr infusion) and oral formulations ([1]; Cmax, AUC(tf), AUC(I) of temozolomide and MTIC, n=19): bioequivalent | tf time of final quantifiable sample, Mean (CV, %) [1, 5]: 8.00 (0) hr | tf time of final quantifiable sample, Mean (CV, %) ([1]; TMZ PO, 150 mg/m^2/day, n = 19): 8.00 (0) hr | Tmax [1, 6]: 1 h | half-life [1, 6]: 1.91 h | AUC ([1]; iv, 150 mg/m2, IV infusion about 1 hour to about 2 hours, single dose of 150 mg/m2, read-out: arithmetic AUC (from time zero to infinity) for temozolomide, range): 17600 to 37000 ng·h/mL | Cmax ([1]; iv, 150 mg/m2, IV infusion about 1 hour to about 2 hours, single dose of 150 mg/m2, read-out: arithmetic maximum plasma concentration (Cmax) of temozolomide, range): 5500 to 10600 ng/mL | AUC ([1]; iv, 150 mg/m2, IV infusion about 1 hour to about 2 hours, single dose of 150 mg/m2, read-out: arithmetic mean AUC (from time zero to infinity) for temozolomide): ~25000 ng·h/mL | Cmax ([1]; iv, 150 mg/m2, IV infusion about 1 hour to about 2 hours, single dose of 150 mg/m2, read-out: arithmetic mean maximum plasma concentration (Cmax) of temozolomide): ~7400 ng/mL | AUC ([1]; iv, 150 mg/m2, arithmetic mean AUC (from time zero to infinity) for temozolomide, IV infusion about 1 hour to about 2 hours, single dose of 150 mg/m2, heading: arithmetic mean AUC for temozolomide): ~25000 ng·h/mL | AUC ([1]; iv, 150 mg/m^2/day, TMZ IV 1.5 hr infusion, 150 mg/m^2/day, n = 19, read-out: AUC(I) of TMZ, Mean): 25000 ng·h/mL | AUC ([1]; iv, 150 mg/m^2/day, TMZ IV 1.5 hr infusion, 150 mg/m^2/day, n = 19, read-out: AUC(tf) of TMZ, Mean): 23400 ng·h/mL | Cmax ([1]; iv, 150 mg/m^2/day, TMZ IV 1.5 hr infusion, 150 mg/m^2/day, n = 19, read-out: Cmax of TMZ, arithmetic Mean): 7440 ng/mL | AUC ([1]; iv, 150 mg/m^2/day, TMZ IV 1.5 hr infusion, 150 mg/m^2/day, n = 19 PE, read-out: AUC(I) of TMZ, IV Mean (least-squares)): 24600 ng·h/mL | AUC ([1]; iv, 150 mg/m^2/day, TMZ IV 1.5 hr infusion, 150 mg/m^2/day, n = 19 PE, read-out: AUC(tf) of TMZ, IV Mean (least-squares)): 23100 ng·h/mL | Cmax ([1]; iv, 150 mg/m^2/day, TMZ IV 1.5 hr infusion, 150 mg/m^2/day, n = 19 PE, read-out: Cmax of TMZ, IV Mean (least-squares)): 7290 ng/mL | AUC ([1]; po, 150 mg/m2, TMZ PO, 150 mg/m^2/day, n = 19, read-out: AUC(I) of TMZ, Mean): 23600 ng·h/mL | AUC ([1]; po, 150 mg/m2, TMZ PO, 150 mg/m^2/day, n = 19, read-out: AUC(tf) of TMZ, Mean): 22000 ng·h/mL | Cmax ([1]; po, 150 mg/m2, TMZ PO, 150 mg/m^2/day, n = 19, read-out: Cmax of TMZ, arithmetic Mean): 7680 ng/mL | AUC ([1]; po, 150 mg/m2, TMZ PO, 150 mg/m^2/day, n = 19 PE, read-out: AUC(I) of TMZ, PO Mean (least-squares)): 23400 ng·h/mL | AUC ([1]; po, 150 mg/m2, TMZ PO, 150 mg/m^2/day, n = 19 PE, read-out: AUC(tf) of TMZ, PO Mean (least-squares)): 21800 ng·h/mL | Cmax ([1]; po, 150 mg/m2, TMZ PO, 150 mg/m^2/day, n = 19 PE, read-out: Cmax of TMZ, PO Mean (least-squares)): 7540 ng/mL | concentration at 0 hr [1, 7]: 0 ng/mL | concentration at 0.25 hr [1, 8]: 2380 ng/mL | concentration at 0.5 hr [1, 7]: 3670 ng/mL | concentration at 1 hr [1, 7]: 5490 ng/mL | concentration at 1.25 hr [1, 8]: 6590 ng/mL | concentration at 1.5 hr [1, 7]: 7080 ng/mL | concentration at 1.75 hr [1, 7]: 6100 ng/mL | concentration at 2 hr [1, 7]: 5600 ng/mL | concentration at 2.5 hr [1, 7]: 4590 ng/mL | concentration at 3 hr [1, 8]: 3860 ng/mL | concentration at 4 hr [1, 7]: 2810 ng/mL | concentration at 6 hr [1, 7]: 1200 ng/mL | concentration at 8 hr [1, 7]: 590 ng/mL | concentration at 0 hr ([1]; PO, 150 mg/m^2/day, n = 19): 0 ng/mL | concentration at 0.25 hr ([1]; PO, 150 mg/m^2/day, n = 19): 2110 ng/mL | concentration at 0.5 hr ([1]; PO, 150 mg/m^2/day, n = 19): 5320 ng/mL | concentration at 1 hr ([1]; PO, 150 mg/m^2/day, n = 19): 6050 ng/mL | concentration at 1.25 hr ([1]; PO, 150 mg/m^2/day, n = 18): 6120 ng/mL | concentration at 1.5 hr ([1]; PO, 150 mg/m^2/day, n = 19): 5770 ng/mL | concentration at 1.75 hr ([1]; PO, 150 mg/m^2/day, n = 18): 5360 ng/mL | concentration at 2 hr ([1]; PO, 150 mg/m^2/day, n = 19): 4890 ng/mL | concentration at 2.5 hr ([1]; PO, 150 mg/m^2/day, n = 19): 4000 ng/mL | concentration at 3 hr ([1]; PO, 150 mg/m^2/day, n = 19): 3440 ng/mL | concentration at 4 hr ([1]; PO, 150 mg/m^2/day, n = 19): 2410 ng/mL | concentration at 6 hr ([1]; PO, 150 mg/m^2/day, n = 19): 1170 ng/mL | concentration at 8 hr ([1]; PO, 150 mg/m^2/day, n = 19): 560 ng/mL | Tmax [1, 5]: 1.5 h | half-life [1, 5]: 1.82 h | Maximum AUC [2]: 35400 ng·h/mL | Maximum Cmax [2]: 16800 ng/mL | Mean AUC [2]: 24800 ng·h/mL | Mean Cmax [2]: 8800 ng/mL | Minimum AUC [2]: 17700 ng·h/mL | Minimum Cmax [2]: 2600 ng/mL | AUC Ratio Estimate IV/PO [3, 9]: 104% | AUC ratio IV/PO, 90% C.I. [3, 9]: 97-112% | Cmax Ratio Estimate IV/PO [3, 9]: 114% | Cmax ratio IV/PO, 90% C.I. [3, 9]: 100-131% | bioavailability ([3]; read-out: oral bioavailability): 96% | bioavailability ([3]; read-out: oral bioavailability, range): 89 to 100% | AUC ([3]; TMZ IV 1-hour infusion, 150 mg/m2/day, read-out: AUC of TMZ, IV Mean (least-squares)): 21500 ng·h/mL | Cmax ([3]; TMZ IV 1-hour infusion, 150 mg/m2/day, read-out: Cmax of TMZ, IV Mean (least-squares)): 7100 ng/mL | AUC ([3]; TMZ PO, 150 mg/m2/day, read-out: AUC of TMZ, PO Mean (least-squares)): 20700 ng·h/mL | Cmax ([3]; TMZ PO, 150 mg/m2/day, read-out: Cmax of TMZ, PO Mean (least-squares)): 6200 ng/mL
